Literature values as cited in patent US20220241167A1, “PRODUCT FOR TREATING KERATINOUS FIBERS, CONTAINING SILANES OF SPECIFIC FORMULAE” (Henkel AG & Co. KGaA, priority 2019, published 2022).

Settings: for solubility in water: 25° C.

O=S(=O)([O-])c1ccc(N=Nc2c(O)ccc3ccccc23)cc1.[Na+] [Acid Orange 7, sodium salt of 4-[(2-hydroxy-1-naphthyl)azo]benzene sulphonate]
solubility in water: more than 7 g/L

Nc1cc(S(=O)(=O)[O-])cc2cc(S(=O)(=O)[O-])c(N=Nc3ccccc3)c(O)c12.[Na+].[Na+] [Acid Red 33, diantrium salt of 5-amino-4-hydroxy-3-(phenylazo)-naphthalene-2,7-disulphonate]
solubility in water: about 2.5 g/L

O=C([O-])C1=NN(c2ccc(S(=O)(=O)[O-])cc2)C(=O)C1N=Nc1ccc(S(=O)(=O)[O-])cc1.[Na+].[Na+].[Na+] (stereo not drawn) [Acid Yellow 23, trisodium salt of 4,5-dihydro-5-oxo-1-(4-sulfophenyl)-4-((4-sulfophenyl)azo)-1H-pyrazole-3-carboxylic acid]
solubility in water (in words) (at 25° C.): highly soluble in water
